Test results from ChEMBL document CHEMBL1201862, “PubChem BioAssay data set” (2004).
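Compound exposure: 48 hours, 5 concentrations, 96-well plates. Abbreviation: GI50, concentration required for 50% inhibition of growth.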 Activity calls are given as the source filed them. Rule as the data show it: active = GI50 up to about 1.1 µM and inactive = higher.

Assays:
Experiment in all cases: NCI tumour cell line growth inhibition, 48 h
A549 = test system: A549
KM12 = test system: KM12
U-251 = test system: U-251
SNB-75 = test system: SNB-75
SW-620 = test system: SW-620
UO-31 = test system: UO-31
HCC 2998 = test system: HCC 2998
TK-10 = test system: TK-10
CCRF-CEM = test system: CCRF-CEM
NCI-H23 = test system: NCI-H23
IGROV-1 = test system: IGROV-1
T47D = test system: T47D
OVCAR-5 = test system: OVCAR-5
SK-MEL-5 = test system: SK-MEL-5
OVCAR-4 = test system: OVCAR-4
LOX IMVI = test system: LOX IMVI
EKVX = test system: EKVX
786-0 = test system: 786-0
RXF 393 = test system: RXF 393
MDA-MB-231 = test system: MDA-MB-231

Measured: GI50

CCOC(=O)c1c(CN2CCNCC2)nc2ccc(Cl)cc2c1-c1ccccc1
inactive: A549 5.31 µM | KM12 3.44 µM | U-251 12.9 µM | SNB-75 2.37 µM | SW-620 2.03 µM | UO-31 3.32 µM | HCC 2998 1.6 µM | TK-10 5.07 µM | CCRF-CEM 2.51 µM | NCI-H23 10.4 µM | IGROV-1 5 µM | T47D 4.82 µM | OVCAR-5 19.5 µM | SK-MEL-5 1.42 µM | OVCAR-4 3.72 µM | LOX IMVI 1.85 µM | EKVX 9.38 µM | 786-0 1.65 µM | RXF 393 2.58 µM

CCOP(=O)(OCC)c1ccc(=O)[nH]c1-c1cccs1
inactive: A549 > 100 µM | KM12 > 100 µM | U-251 > 100 µM | SNB-75 > 100 µM | SW-620 > 100 µM | UO-31 > 100 µM | HCC 2998 > 100 µM | TK-10 > 100 µM | NCI-H23 > 100 µM | IGROV-1 > 100 µM | T47D > 100 µM | OVCAR-5 > 100 µM | SK-MEL-5 > 100 µM | OVCAR-4 > 100 µM | EKVX > 100 µM | 786-0 > 100 µM | RXF 393 > 100 µM

COC(=O)CC(=O)OC
inactive: A549 > 100 µM | KM12 > 100 µM | U-251 > 100 µM | SNB-75 > 100 µM | SW-620 > 100 µM | UO-31 > 100 µM | HCC 2998 > 100 µM | TK-10 > 100 µM | CCRF-CEM > 100 µM | NCI-H23 > 100 µM | IGROV-1 > 100 µM | OVCAR-5 > 100 µM | SK-MEL-5 > 100 µM | OVCAR-4 > 100 µM | LOX IMVI > 100 µM | EKVX > 100 µM | 786-0 > 100 µM | RXF 393 > 100 µM

COC(=O)C1CCC(=O)N1C(c1cc(OC)c(OC)c(OC)c1)c1cc(OC)c(OC)c(OC)c1 (configuration not stated)
inactive: A549 > 100 µM | KM12 > 100 µM | U-251 > 100 µM | SNB-75 > 100 µM | SW-620 > 100 µM | UO-31 > 100 µM | TK-10 > 100 µM | IGROV-1 94.6 µM | T47D > 100 µM | OVCAR-5 > 100 µM | LOX IMVI > 100 µM | MDA-MB-231 > 100 µM | EKVX > 100 µM | 786-0 > 100 µM

NC1=NC(=O)[C@H](Cc2c[nH]c3ccccc23)N1C(=O)OCc1ccccc1
inactive: KM12 > 100 µM | U-251 69.7 µM | SNB-75 50.9 µM | SW-620 > 100 µM | UO-31 38.1 µM | HCC 2998 > 100 µM | TK-10 > 100 µM | NCI-H23 38.1 µM | IGROV-1 77.6 µM | OVCAR-5 > 100 µM | SK-MEL-5 40.3 µM | OVCAR-4 51.8 µM | LOX IMVI 68.5 µM | MDA-MB-231 > 100 µM | EKVX 45.3 µM | 786-0 > 100 µM | RXF 393 45.2 µM

C/C(=N\NC(=O)c1ccncc1)c1ccccc1F
inactive: A549 > 10 µM | KM12 > 10 µM | U-251 > 10 µM | SNB-75 > 10 µM | SW-620 > 10 µM | UO-31 > 10 µM | HCC 2998 > 10 µM | TK-10 > 10 µM | CCRF-CEM > 10 µM | NCI-H23 > 10 µM | IGROV-1 > 10 µM | T47D > 10 µM | OVCAR-5 > 10 µM | SK-MEL-5 > 10 µM | LOX IMVI > 10 µM | 786-0 > 10 µM | RXF 393 > 10 µM
